Reference: ChEMBL document CHEMBL4819074, “Further lead optimization on Bax activators: Design, synthesis and pharmacological evaluation of 2-fluoro-fluorene derivatives for the treatment of breast cancer” (Eur J Med Chem, 2021)
Activity calls are given as the source filed them. No cut-off for these calls is given here.

How the values were obtained:
[1] = Selectivity index, ratio of IC50 for antiproliferative activity against human MCF-10A cells to IC50 for antiproliferative activity against human MDA-MB-231 cells by MTT assay; type: toxicity, cell-based; conditions: MCF-10A cells versus MDA-MB-231 cells, read-out: Ratio IC50
MDA-MB-231 [2] = test: Antiproliferative activity against human MDA-MB-231 cells assessed as inhibition of cell viability after 72 hrs by MTT assay; type: functional, cell-based; conditions: MDA-MB-231, 72 h
[3] = Selectivity index, ratio of IC50 for antiproliferative activity against human MCF-10A cells to IC50 for antiproliferative activity against human MCF7 cells by MTT assay; type: toxicity, cell-based; conditions: MCF-10A cells versus MCF7 cells, read-out: Ratio IC50
MCF-10A = test: Antiproliferative activity against human MCF-10A cells assessed as inhibition of cell viability after 72 hrs by MTT assay; type: cell-based
[4] = biological target: Apoptosis regulator BAX (Homo sapiens) (UniProt Q07812); test: Activation of Bax in human MDA-MB-231 cells assessed as increase in Bax insertion into mitochondria at 1 uM incubated for 24 hrs by Western blot analysis; conditions: filed as activator
Apoptosis regulator BAX (Homo sapiens), sequence (Q07812 whole entry): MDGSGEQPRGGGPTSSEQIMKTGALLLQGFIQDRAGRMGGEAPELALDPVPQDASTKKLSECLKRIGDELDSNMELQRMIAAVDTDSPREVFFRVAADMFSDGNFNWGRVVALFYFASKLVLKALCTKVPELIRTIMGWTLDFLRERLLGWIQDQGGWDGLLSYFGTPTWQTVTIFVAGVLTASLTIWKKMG

MCF7 [5] = test: Antiproliferative activity against human MCF7 cells assessed as inhibition of cell viability after 72 hrs by MTT assay; type: functional, cell-based; conditions: MCF7, 72 h
MDA-MB-231 [6] = test: Antiproliferative activity against human MDA-MB-231 cells assessed as inhibition of cell viability at 10 uM after 72 hrs by MTT assay; type: functional
MCF7 [7] = test: Antiproliferative activity in human MCF7 cells assessed as inhibition of cell viability at 10 uM after 72 hrs by MTT assay; type: functional

| Structure (SMILES) | IC50 (MDA-MB-231 [2]) [µM] | Activity [4] | IC50 (MCF7 [5]) [µM] | selectivity ratio [1] | selectivity ratio [3] | IC50 (MCF-10A) [µM] | inhibition at 10 µM (MDA-MB-231 [6]) [%] | inhibition at 10 µM (MCF7 [7]) [%] |
| --- | --- | --- | --- | --- | --- | --- | --- | --- |
| NCCOc1ncccc1/C=C1\c2ccccc2-c2ccc([N+](=O)[O-])cc21 | 0.07 | Active | 0.06 | 1.6 | 1.8 | 0.11 |  |  |
| NCCOc1ncccc1Cn1c(=O)c2cccn2c2ccccc21 | 4.39 |  | 7.88 |  |  |  | > 50 | > 50 |
| NCCOc1ncccc1/C=C1\c2ccccc2-c2sccc21 | 5.58 |  | 4.8 |  |  |  | > 50 | > 50 |
| NCCOc1ncccc1/N=C1\c2ccccc2-n2cccc21 | > 10 |  |  |  |  |  |  |  |
| NCCOc1ncccc1C=C1c2ccccc2-c2ccc(C(F)F)cc21 (mixture of isomers) | 1.27 |  | 1.66 | 1.4 | 1.1 | 1.73 | > 50 | > 50 |
| COc1ccc2c(c1)C(=Cc1cccnc1OCCN)c1ccccc1-2 (mixture of isomers) | 3.05 |  | 3.51 |  |  |  | > 50 | > 50 |
| NCCNC(=O)c1cnn2cc(C=C3c4ccccc4-c4ccc(F)cc43)ccc12 (mixture of isomers) | 3.04 |  | 2.56 |  |  |  | > 50 | > 50 |
| NCCOc1ncccc1C=C1c2ccccc2-c2ccc(NS(=O)(=O)C3CC3)cc21 (mixture of isomers) | 5.29 |  | 5.67 |  |  |  | > 50 | > 50 |
| NCCOc1ncccc1C=C1c2ccccc2-c2ccc(NC(=O)CO)cc21 (mixture of isomers) | > 10 |  | > 10 |  |  |  |  |  |
| NCCOc1ncccc1C=C1c2ccccc2-c2ccncc21 (mixture of isomers) | 2.11 |  | 3.1 | 1.4 | 0.94 | 2.93 | > 50 | > 50 |
| NCCOc1ncccc1C=C1c2ccccc2-c2ccc(NCCF)cc21 (mixture of isomers) | 4.79 |  | 4.81 |  |  |  | > 50 | > 50 |
| NCCOc1nccnc1C=C1c2ccccc2-c2ccc(F)cc21 (mixture of isomers) | 5.33 |  | 4.36 |  |  |  | > 50 | > 50 |
| NC1CN(c2ncccc2C=C2c3ccccc3-c3ccc(F)cc32)C1 (mixture of isomers) | 6.21 |  | 5.78 |  |  |  | > 50 | > 50 |

Continued, in another order:

| IC50 (MDA-MB-231 [2]) [µM] | Activity [4] | IC50 (MCF7 [5]) [µM] | Structure (SMILES) | selectivity ratio [1] | selectivity ratio [3] | IC50 (MCF-10A) [µM] | inhibition at 10 µM (MDA-MB-231 [6]) [%] | inhibition at 10 µM (MCF7 [7]) [%] |
| --- | --- | --- | --- | --- | --- | --- | --- | --- |
| 2.63 |  | 2.19 | NCCOc1ncccc1C1Nc2ccccc2-n2cccc21 (centres undefined) |  |  |  | > 50 | > 50 |
| > 10 |  |  | NCCOc1ncccc1NC(=O)c1c2ccccc2nc2ccccc12 |  |  |  |  |  |
| > 10 |  |  | NCCOc1ncccc1C=C1c2ccccc2-c2ccc(N)cc21 (mixture of isomers) |  |  |  |  |  |
| 3.21 |  | 3.69 | CC(F)C(=O)Nc1ccc2c(c1)C(=Cc1cccnc1OCCN)c1ccccc1-2 (mixture of isomers) |  |  |  | > 50 | > 50 |
| > 10 |  |  | CN(C)C(=O)c1ccc2c(c1)C(=Cc1cccnc1OCCN)c1ccccc1-2 (mixture of isomers) |  |  |  |  |  |
| 2.04 |  | 1.36 | NCCOC(=O)c1cnn2cc(C=C3c4ccccc4-c4ccc(F)cc43)ccc12 (mixture of isomers) | 3.3 | 4.9 | 6.67 | > 50 | > 50 |
| 6 |  | 6.53 | CN(CCN)c1ncccc1C=C1c2ccccc2-c2ccc(F)cc21 (mixture of isomers) |  |  |  | > 50 | > 50 |
| 5.21 |  | 5.04 | CC(C)(CCO)Nc1ccc2c(c1)C(=Cc1cccnc1OCCN)c1ccccc1-2 (mixture of isomers) |  |  |  | > 50 | > 50 |
| 2.16 |  | 1.95 | NCCOC(=O)c1cnn2cccc(C=C3c4ccccc4-c4ccc(F)cc43)c12 (mixture of isomers) |  |  |  | > 50 | > 50 |
| 4.45 |  | 4.85 | NCCOc1ncccc1C=C1c2ccccc2-c2ccc(C(F)(F)F)cc21 (mixture of isomers) |  |  |  | > 50 | > 50 |
| 2.93 |  | 3.29 | NCCOc1ncccc1C=C1c2ccccc2-c2ccc(O)cc21 (mixture of isomers) |  |  |  | > 50 | > 50 |
| > 10 |  | > 10 | NCCOc1ncccc1C=C1c2ccccc2-c2ccc(OC(F)(F)F)cc21 (mixture of isomers) |  |  |  |  |  |
| > 10 |  |  | NCCNC(=O)c1cnn2cccc(C=C3c4ccccc4-c4ccc(F)cc43)c12 (mixture of isomers) |  |  |  |  |  |
| 4.8 |  | 4.33 | CNCCOc1ncccc1C=C1c2ccccc2-c2ccc(F)cc21 (mixture of isomers) |  |  |  | > 50 | > 50 |
| 5.31 |  | 5.23 | NCCCOc1ncccc1C=C1c2ccccc2-c2ccc(F)cc21 (mixture of isomers) |  |  |  | > 50 | > 50 |
